Measurements taken from patent US7351728B2, “Oxazolyl-aryloxyacetic acid derivatives and their use as PPAR agonists” (Eli Lilly and Company, priority 2003, dated 2008).
Blank lines part the entries; values can stand above or below the molecule they belong to.

Experiments:
[1] = tested on: HuapoAI transgenic mice; test: Evaluation of triglyceride and cholesterol level in HuapoAI transgenic mice; type: in vivo; conditions: for change in vivo at 30 mg/kg / inhibition in vivo at 30 mg/kg: Mus musculus, 168 h, 30 mg/kg daily oral gavage 7 days; for change in vivo at 30 mg/kg: percent increase in FPLC HDLc area under the curve; for inhibition in vivo at 30 mg/kg: serum, male human apoAI transgenic mice, read-out: % Triglyceride Reduction
Protocol: Five to six week old male mice, transgenic for human apoAI [C57Bl/6-tgn(apoa1)lrub, Jackson Laboratory, Bar Harbor, Me.] were housed five per cage (10″×20″×8″ with aspen chip bedding) with food (Purina 5001) and water available at all times. After an acclimation period of 2 weeks, animals were individually identified by ear notches, weighed, and assigned to groups based on body weight. Beginning the following morning, mice were dosed daily by oral gavage for 7 days using a 20 gauge, 1½″ curved disposable feeding needle (Popper & Sons). Treatments were test compounds (30 mg/kg), a positive control (fenofibrate, 100 mg/kg) or vehicle [1% carboxymethylcellulose (w/v)/0.25% Tween80 (w/v); 0.2 ml/mouse]. Prior to termination on day 7, mice were weighed and dosed. Three hours after dosing, animals were anesthetized by inhalation of isoflurane (2-4%; Abbott Laboratories, Chicago, Ill.) and blood obtained via cardiac puncture (0.7-1.0 ml). Whole blood was transferred to serum separator tubes (Vacutainer SST), chilled on ice, and permitted to clot. Serum was obtained after centrifugation at 4° C. and frozen until analysis for triglycerides, total cholesterol, compound levels, and serum lipoprotein profile by fast protein liquid chromatography (FPLC) coupled to an inline detection system. After sacrifice by cervical dislocation, the liver, heart and epididymal fat pads were excised and weighed.
The animals dosed with vehicle had average triglycerides values of 60-80 mg/dl, which were reduced by the positive control fenofibrate (33-58 mg/dl with a mean reduction of 37%). The animals dosed with vehicle had average total serum cholesterol values of 140-180 mg/dl, which were increased by fenofibrate (190-280 mg/dl, with a mean elevation of 41%). […] Fenofibrate increased the amount of HDLc (68-96 v-sec with a mean percent increase of 48%).
(§1) Glucose was measured colorimetrically using commercially purchased reagents (Sigma #315-500). According to the manufacturers, the procedures were modified from published work (McGowan, M. W., Artiss, J. D., Strandbergh, D. R. & Zak, B. Clin Chem, 20:470-5 (1974) and Keston, A. Specific colorimetric enzymatic analytical reagents for glucose. Abstract of papers 129th Meeting ACS, 31C (1956).); and depend on the release of a mole of hydrogen peroxide for each mole of analyte, coupled with a color reaction first described by Trinder (Trinder, P. Determination of glucose in blood using glucose oxidase with an alternative oxygen acceptor. Ann Clin Biochem, 6:24 (1969)). The absorbance of the dye produced is linearly related to the analyte in the sample. The assays were further modified in our laboratory for use in a 96 well format. Standards (Sigma #339-11, Sigma #16-11, and Sigma #CC0534 for glucose triglycerides and total cholesterol, respectively), quality control plasma (Sigma # A2034), and samples (2 or 5 μl/well) were measured in duplicate using 200 μl of reagent. An additional aliquot of sample, pipetted to a third well and diluted in 200 μl water, provided a blank for each specimen. Plates were incubated at room temperature (18, 15, and 10 minutes for glucose, triglycerides and total cholesterol, respectively) on a plate shaker (DPC Micormix 5) and absorbance read at 500 nm (glucose and total cholesterol) or 540 nm (triglycerides) on a plate reader (Wallac Victor 1420). Sample absorbances were compared to a standard curve (100-800, 10-500, and 100-400 mg/dl for glucose, triglycerides and total cholesterol, respectively). Values for the quality control sample were always within the expected range and the coefficient of variation for samples was below 10%. All samples from an experiment were assayed at the same time to minimize inter-assay variability.
Serum lipoproteins were separated and cholesterol quantitated with an in-line detection system. Sample was applied to a Superose® 6 HR 10/30 size exclusion column (Amersham Pharmacia Biotech) and eluted with phosphate buffered saline-EDTA at 0.5 ml/min. […]

[2] = tested on: db/db mice; test: Evaluation of glucose levels in db/db mice; type: in vivo; conditions: Mus musculus, 168 h; 30 mg/kg daily oral gavage 7 days, male db/db mice; 100% = lean values; read-out: Glucose Normalization %
Protocol: Five week old male diabetic (db/db) mice [C57BlKs/j-m +/+ Lepr(db), Jackson Laboratory, Bar Harbor, Me.] or lean littermates (db+) were housed 6 per cage (10″×20″×8″ with aspen chip bedding) with food (Purina 5015) and water available at all times. After an acclimation period of 2 weeks, animals were individually identified by ear notches, weighed, and bled via the tail vein for determination of initial glucose levels. Blood was collected (100 μl) from unfasted animals by wrapping each mouse in a towel, cutting the tip of the tail with a scalpel, and milking blood from the tail into a heparinized capillary tube (Fisher) balanced on the edge of the bench. Sample was discharged into a heparinized microtainer with gel separator (VWR) and retained on ice. Plasma was obtained after centrifugation at 4° C. and glucose measured immediately. Remaining plasma was frozen until the completion of the experiment, when glucose and triglycerides were assayed in all samples. Animals were grouped based on initial glucose levels and body weights. Beginning the following morning, mice were dosed daily by oral gavage for 7 days using a 20 gauge, 1½″ curved disposable feeding needle. Treatments were test compounds (30 mg/kg), a positive control agent (30 mg/kg) or vehicle [1% carboxymethylcellulose (w/v)/0.25% Tween80 (w/v); 0.3 ml/mouse]. On day 7, mice were weighed and bled (tail vein) 3 hours after dosing. Twenty-four hours after the 7th dose (i.e., day 8), animals were bled again (tail vein). Samples obtained from conscious animals on days 0, 7 and 8 were assayed for glucose. After the 24 hour bleed, animals were weighed and dosed for the final time. Three hours after dosing on day 8, animals were anesthetized by inhalation of isoflurane and blood obtained via cardiac puncture (0.5-0.7 ml). Whole blood was transferred to serum separator tubes, chilled on ice and permitted to clot. Serum was obtained after centrifugation at 4° C. and frozen until analysis for compound levels. After sacrifice by cervical dislocation, the liver, heart and epididymal fat pads were excised and weighed.
The animals dosed with vehicle had average triglycerides values of 170-230 mg/dl, which were reduced by the positive PPARγ control (70-120 mg/dl with a mean reduction of 50%). Male db/db mice were hyperglycemic (average glucose of 680-730 mg/dl on the 7th day of treatment), while lean animals had average glucose levels between 190-230 mg/dl.
as §1, with “Sample absorbances were compared to a standard curve (100-800, 10-500, and 100-400 mg/dl for glucose, triglycerides and total cholesterol, respectively). Values for the quality control sample were always within the expected range and the coefficient of variation for samples was below 10%. All samples from an experiment were assayed at the same time to minimize inter-assay variability.” left out

[3] = tested on: huPPARα; test: Cotransfection assay in CV-1 cells, luciferase reporter (GAL4 chimeric system); type: cell-based, human; conditions: cotransfection efficacy relative to PPARα agonist reference molecule
Protocol: (§2) DNA-dependent binding (ABCD binding) was carried out using SPA technology with PPAR receptors. Tritium-labeled PPARα and PPARγ agonists were used as radioligands for generating displacement curves and IC50 values with compounds of the invention. Cotransfection assays were carried out in CV-1 cells. The reporter plasmid contained an acylCoA oxidase (AOX) PPRE and TK promoter upstream of the luciferase reporter cDNA. Appropriate PPARs and RXRα were constitutively expressed using plasmids containing the CMV promoter. […] In order to eliminate such interference, a GAL4 chimeric system was used in which the DNA binding domain of the transfected PPAR was replaced by that of GAL4, and the GAL4 response element was utilized in place of the AOX PPRE. Cotransfection efficacy was determined relative to PPARα agonist and PPARγ agonist reference molecules. Efficacies were determined by computer fit to a concentration-response curve, or in some cases at a single high concentration of agonist (10 μM). For binding or cotransfection studies with receptors other than PPARs, similar assays were carried out using appropriate ligands, receptors, reporter constructs, etc., for that particular receptor.
(§3) These studies were carried out to evaluate the ability of compounds of the invention to bind to and/or activate various nuclear transcription factors, particularly huPPARα (“hu” indicates “human”) and huPPARγ. These studies provide in vitro data concerning efficacy and selectivity of compounds of the invention. Furthermore, binding and cotransfection data for compounds of the invention were compared with corresponding data for marketed compounds that act on either huPPARα or huPPARγ.
(§4) Binding and cotransfection data for representative compounds of the invention are compared with corresponding data for reference compounds in Table II.

[4] = target: T1, huPPARγ (Homo sapiens, UniProt P37231); test: Cotransfection assay in CV-1 cells, AOX PPRE luciferase reporter; type: cell-based; parameters: expressed in transfected cells; host or cells: CV-1 cells; conditions: cotransfection efficacy relative to PPARγ agonist reference molecule
T1 sequence (P37231 1-505): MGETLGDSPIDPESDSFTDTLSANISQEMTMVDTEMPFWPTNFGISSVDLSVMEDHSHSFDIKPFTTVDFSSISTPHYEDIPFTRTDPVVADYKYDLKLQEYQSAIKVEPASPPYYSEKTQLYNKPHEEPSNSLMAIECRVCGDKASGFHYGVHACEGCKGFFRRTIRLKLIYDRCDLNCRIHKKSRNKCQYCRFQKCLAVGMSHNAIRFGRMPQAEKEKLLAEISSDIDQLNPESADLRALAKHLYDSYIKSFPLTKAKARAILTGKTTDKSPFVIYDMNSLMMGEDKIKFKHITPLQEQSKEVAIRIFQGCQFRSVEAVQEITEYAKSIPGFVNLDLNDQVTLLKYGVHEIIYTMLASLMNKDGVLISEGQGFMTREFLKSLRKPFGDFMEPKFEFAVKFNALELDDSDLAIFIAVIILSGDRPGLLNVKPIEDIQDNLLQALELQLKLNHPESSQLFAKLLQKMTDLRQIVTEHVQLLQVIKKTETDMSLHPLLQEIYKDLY
T1 sequence (P19793 1-462 partner): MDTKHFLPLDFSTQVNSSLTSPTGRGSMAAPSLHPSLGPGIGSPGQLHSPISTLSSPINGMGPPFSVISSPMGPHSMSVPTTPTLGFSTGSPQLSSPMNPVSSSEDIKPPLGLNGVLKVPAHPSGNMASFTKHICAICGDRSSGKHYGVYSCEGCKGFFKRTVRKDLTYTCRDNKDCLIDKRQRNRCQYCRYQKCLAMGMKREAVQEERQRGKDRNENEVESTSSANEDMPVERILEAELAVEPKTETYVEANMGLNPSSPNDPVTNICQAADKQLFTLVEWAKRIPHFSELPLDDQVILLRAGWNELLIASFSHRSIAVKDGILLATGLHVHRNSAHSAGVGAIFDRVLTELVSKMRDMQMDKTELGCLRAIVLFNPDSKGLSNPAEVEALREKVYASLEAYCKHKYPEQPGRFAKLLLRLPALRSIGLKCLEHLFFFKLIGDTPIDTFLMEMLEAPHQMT
Protocol: as §2, §3, §4

[5] = 100 mg/kg daily oral gavage 7 days, versus vehicle

melting point: 136 to 138 °C
Compound: Cc1oc(-c2ccccc2)nc1COc1ccc(OC(C)(C)C(=O)O)cc1 [Example 4, 2-Methyl-2-[4-(5-methyl-2-phenyloxazol-4-ylmethoxy)phenoxy]propionic acid]

Compound: Cc1oc(-c2ccccc2)nc1CCOc1ccc(OC(C)(Cc2ccccc2)C(=O)O)cc1 (centres unmarked) [Example 6, 2-Methyl-2-{4-[2-(5-methyl-2-phenyloxazol-4-yl)ethoxy]phenoxy}-3-phenylpropionic acid]
change in vivo at 30 mg/kg [1]: 20%
inhibition in vivo at 30 mg/kg [1]: 35.4%
inhibition in vivo at 30 mg/kg [2]: 65%

melting point: 131 to 134 °C
Compound: C#Cc1cccc(-c2nc(CCOc3ccc(OC(C)(C)C(=O)O)cc3)c(C)o2)c1 [Example 10, 2-(4-{2-[2-(3-Ethynylphenyl)-5-methyloxazol-4-yl]ethoxy}phenoxy)-2-methylpropionic acid]

Compound: CCc1cc(OC(C)(C)C(=O)O)ccc1OCCc1nc(-c2ccccc2)oc1C [Example 31A, 2-{3-Ethyl-4-[2-(5-methyl-2-phenyloxazol-4-yl)ethoxy]phenoxy}-2-methylpropionic acid]
change in vivo at 30 mg/kg [1]: 98%
inhibition in vivo at 30 mg/kg [1]: -6.4%
inhibition in vivo at 30 mg/kg [2]: 19%

huPPARγ CTF Eff. (%) [4]: 0%
Compound: CC(C)(Oc1ccc(C(=O)c2ccc(Cl)cc2)cc1)C(=O)O [Fenofibric acid, reference compound]
huPPARα CTF Eff. (%) [3]: 16%

Compound: Cc1c(C)c2c(c(C)c1O)CCC(C)(COc1ccc(CC3SC(=O)NC3=O)cc1)O2 (centres unmarked) [Troglitazone, reference compound]
huPPARα CTF Eff. (%) [3]: 0%

Compound: CC(C)OC(=O)C(C)(C)Oc1ccc(C(=O)c2ccc(Cl)cc2)cc1 [fenofibrate, reference compound]
HDLc peak area ([1]; 100 mg/kg daily oral gavage 7 days, FPLC of pooled sera, vehicle 47-62 v-sec): 68-96 v-sec
mean elevation of total serum cholesterol [1, 5]: 41%
mean percent increase of HDLc [1, 5]: 48%
mean reduction of triglycerides [1, 5]: 37%
average triglycerides values ([1]; 100 mg/kg daily oral gavage 7 days, vehicle 60-80 mg/dl): 33 to 58 mg/dL
average total serum cholesterol values ([1]; 100 mg/kg daily oral gavage 7 days, vehicle 140-180 mg/dl): 190 to 280 mg/dL
